Source: PMC5458078, “Global mapping of CARM1 substrates defines enzyme specificity and substrate recognition” (Nature Communications, 2017)

What was measured:
[1] = test system: MCF7 cells; experiment: Quantitative nanoLC-MS/MS (TMT) of ADMA-containing peptides, CARM1 KO vs parental; type: cell-based, human; set-up: Fold change KO/WT: scale not given here
[2] = test system: MCF7 CARM1 KO cells; experiment: Quantitative MS of ADMA-containing peptides in MCF7 CARM1 KO cells expressing CARM1 28-608 or CARM1 140-608, and in CARM1 KO; type: cell-based, human
[3] = MCF7, CARM1 knockout vs wild type, n = 3 each
[4] = ratio on log2 scale, mean of 3 replicates
[5] = ADMA-containing peptide, CARM1 knockout (KO) vs wild type (WT) MCF7 cells, 6-plex TMT experiment #1, three biological replicates each, sheet "MCF7"
[6] = CARM1 140-608 versus WT, mean of three replicates (log2)
[7] = KO versus WT, mean of three replicates (log2)
[8] = MCF7, CARM1 KO (KO1-KO3) vs wild type (WT1-WT3)
[9] = MCF7 CARM1 knockout vs wild type, 3 biological replicates each, values are on log2 scale
[10] = mean, CARM1 140-608 versus WT (log2 scale)
[11] = mean, CARM1 KO versus WT (log2 scale)
[12] = CARM1 140-608 vs WT, mean of 3 replicates (log2 scale)
[13] = KO vs WT, mean of 3 replicates (log2 scale)
[14] = ADMA-containing peptide, MCF7, CARM1 knockout (KO1-3) vs wild type (WT1-3), TMT 6-plex experiment #1
[15] = CARM1 140-608 versus WT, difference of mean log2 values
[16] = CARM1 KO versus WT, difference of mean log2 values
[17] = CARM1 KO vs wild type MCF7 cells, 3 biological replicates each
[18] = log2 scale ratio, mean of n = 3

For GPPLArLPHDPGVFR, the “Fold change KO/WT” value [1, 3] was -1.8, the “CARM1 140-608/WT” value [2, 4] was -1.527 and the KO/WT [2, 4] was -1.8.

CAGFLEPTWLAAPPrLArPPrFYEAGEELTGPGAVAAAR was tested, and the “Fold change KO/WT” value [1, 3] was -3.713, the “CARM1 140-608/WT” value [2, 4] was -2.314 and the KO/WT [2, 4] was -3.713.

AVDLTKPYQNQQLSIrVPLR was tested, and the “Fold change KO/WT” value ([1]; MCF7, CARM1 KO vs WT, three biological replicates each) was -2.685, the “CARM1 140-608/WT” value ([2]; CARM1 140-608 vs WT, mean of 3 replicates, log2) was -2.717 and the KO/WT ([2]; KO vs WT, mean of 3 replicates, log2) was -4.115.

For “GIPLDAAAAYYLPrHLAPNPTYPHLYPPYLIrGYPDTAALENR”, the “Fold change KO/WT” value [1, 5] was -1.386, the “CARM1 140-608/WT” value [2, 6] was -0.9413 and the KO/WT [2, 7] was -1.386.

With DQPGTSAVPNLASVGTrLPPPLPQNLLYTVSErQPMYSR the “Fold change KO/WT” value [1, 8] was -3.343, the “CARM1 140-608/WT” value [2, 6] was -2.641 and the KO/WT [2, 7] was -3.343.

For NPFLTGLSAPSPTNPFGAGEPGrPTLNQMR, the “Fold change KO/WT” value [1, 3] was -3.967, the “CARM1 140-608/WT” value [2, 4] was -2.593 and the KO/WT [2, 4] was -3.967.

For GVVDSDDLPLNVSr, the “Fold change KO/WT” value [1, 9] was -0.9856, the “CARM1 140-608/WT” value [2, 10] was -0.04605 and the KO/WT [2, 11] was -1.284.

In the case of APrSLIPPIPVSPPILAPrLSSGALK, the “Fold change KO/WT” value [1, 8] is reported as -1.927, the “CARM1 140-608/WT” value [2, 12] is reported as -0.773 and the KO/WT [2, 13] is reported as -1.927.

For “LINFQNHSPKPNGPVLPPHPQQLrYPPNQNIPrQAIKPNPLQMAFLAQQAIK”, the “Fold change KO/WT” value [1, 14] was -2.471, the “CARM1 140-608/WT” value [2, 15] was 0.7941 and the KO/WT [2, 16] was -2.136.

LNASIAGLFPPQINIPLPPrPNLNR was tested, and the “Fold change KO/WT” value [1, 5] was -2.4198, the “CARM1 140-608/WT” value [2, 6] was -1.542 and the KO/WT [2, 7] was -2.454.

For CDPVPAANGAIrFHCDPTFWAK, the “Fold change KO/WT” value [1, 17] was -1.494, the “CARM1 140-608/WT” value [2, 15] was -1.543 and the KO/WT [2, 16] was -1.494.

For APVFPGrGSYSNrGNYNR, the “Fold change KO/WT” value [1, 9] was 0.06661, the “CARM1 140-608/WT” value [2, 10] was 0.3143 and the KO/WT [2, 11] was -0.1859.

In the case of SSYLESPrGPrFDGPR, the “Fold change KO/WT” value [1, 17] is reported as -3.147, the “CARM1 140-608/WT” value [2, 15] is reported as -2.628 and the KO/WT [2, 16] is reported as -4.092.

With GSGTGIYSNAAPPPVTYQGNLYrPLLR the “Fold change KO/WT” value [1, 17] was -2.788, the “CARM1 140-608/WT” value [2, 15] was 1.554 and the KO/WT [2, 16] was -1.424.

With RGPPPPPPGrGGrGGSR the “Fold change KO/WT” value [1, 9] was 0.3155, the “CARM1 140-608/WT” value [2, 10] was 0.09749 and the KO/WT [2, 11] was 0.3155.

For APDEPQQAQVPHVWGWEVAGAPALrLQK, the “Fold change KO/WT” value [1, 5] was -2.912, the “CARM1 140-608/WT” value ([2]; difference of log2 means, CARM1 140-608 vs WT) was -2.552 and the KO/WT ([2]; difference of log2 means, KO vs WT) was -3.114.

In the case of KYPLPPPSGrYNWN, the “Fold change KO/WT” value [1, 17] is reported as -1.439, the “CARM1 140-608/WT” value [2, 15] is reported as -1.833 and the KO/WT [2, 16] is reported as -2.65.

LRGPGGPrGGLGGGMR was tested, and the “Fold change KO/WT” value [1, 3] was -0.02725, the “CARM1 140-608/WT” value [2, 10] was 0.5472 and the KO/WT [2, 11] was 1.035.

In the case of LLALSGPGGGrGrGSLLLR, the “Fold change KO/WT” value [1, 5] is reported as 0.2339, the “CARM1 140-608/WT” value [2, 6] is reported as -0.3383 and the KO/WT [2, 7] is reported as -0.09674.

TPLLGDGPrAPFNQEGQSTGPPPLIPGLGQQGAQGR was tested, and the “Fold change KO/WT” value [1, 17] was -4.991, the “CARM1 140-608/WT” value [2, 15] was -4.072 and the KO/WT [2, 16] was -5.54.

“MGTPVPRPPQDMGQIGVrTPLGPrVAAPVGPVGPTPTVLPMGAPVPRPrGPPPPPGDENR” was tested, and the “Fold change KO/WT” value [1, 8] was -3.388, the “CARM1 140-608/WT” value [2, 12] was -2.483 and the KO/WT [2, 13] was -3.388.

In the case of GTPGPPPAHGAALQPHPrVNFCPLPSEQCYQAPGGPEDR, the “Fold change KO/WT” value [1, 17] is reported as -0.7925, the “CARM1 140-608/WT” value [2, 15] is reported as -1.327 and the KO/WT [2, 16] is reported as -0.7925.

With ACLTSGTPGPrAQLTAVTPDTR the “Fold change KO/WT” value [1, 9] was -1.3764, the “CARM1 140-608/WT” value [2, 10] was -1.022 and the KO/WT [2, 11] was -1.3764.

In the case of FIQPrPTLNQPPPPLIRPANSMPPR, the “Fold change KO/WT” value [1, 8] is reported as -1.409, the “CARM1 140-608/WT” value [2, 12] is reported as 0.5669 and the KO/WT [2, 13] is reported as -1.409.

With LQGQQFLNQSrQALELK the “Fold change KO/WT” value [1, 5] was -1.9617, the “CARM1 140-608/WT” value [2, 6] was 0.6173 and the KO/WT [2, 7] was -0.8589.

For MGAGMGFGLErMAAPIDR, the “Fold change KO/WT” value [1, 9] was -3.039, the “CARM1 140-608/WT” value [2, 10] was -2.085 and the KO/WT [2, 11] was -3.039.

In the case of “NVNPVILLNTQTrPYGFGLNHGHTPYSSMLNQGLGVPGIGATQGLrTGFTNIPSrYGTNNR”, the “Fold change KO/WT” value [1, 8] is reported as -2.828, the “CARM1 140-608/WT” value [2, 12] is reported as -1.7448 and the KO/WT [2, 13] is reported as -2.828.

With LVPrLSVGAVSSKPTTPTIATPQTVSVPNK the “Fold change KO/WT” value [1, 14] was -1.953, the “CARM1 140-608/WT” value [2, 18] was -1.646 and the KO/WT [2, 18] was -1.953.

For APVFPGrGSYSNr, the “Fold change KO/WT” value [1, 9] was 0.2723, the “CARM1 140-608/WT” value [2, 10] was 0.2637 and the KO/WT [2, 11] was 0.3482.
